Assay results: patent US9657022B2, “7-OXO-1,6-diazabicyclo[3.2.1]octane derivatives and their use as antibacterial agents” (WOCKHARDT LIMITED, priority 2014, dated 2017)
Values after ≈ are worked out from the molar mass of the structure shown. Read-outs that look alike come from different tables or passages of the source. Blank lines part the entries; values can stand above or below the compound they belong to.

How the values were obtained:
[1] = system: K. pneumoniae H521 (KPC, SHV, TEM); assay: Antibacterial activity (MIC), agar dilution per CLSI; format: cell-based; conditions: Klebsiella pneumoniae
Protocol: (§1) The biological activity of representative compounds according to the invention against various bacterial strains was investigated. In a typical study, overnight grown bacterial cultures were diluted appropriately and inoculated on the agar media containing doubling dilutions of the test compounds. Observations for growth or no growth was performed after 16-20 hours of incubation at 35±2° C. in the ambient air. The overall procedure was performed as per Clinical and Laboratory Standards Institute (CLSI) recommendations, (Clinical and Laboratory Standards Institute (CLSI), Performance Standards for Antimicrobial Susceptibility Testing, 20th Informational Supplement, M07-A9, Volume 32, No. 2, 2012). Molten Mueller Hinton Agar (BD, USA) containing serial dilutions of each antibacterial agent were poured on to the plates and allowed to solidify. Appropriate suspensions from the freshly grown cultures were prepared in normal saline so that about 10^4 CFU/spot of the organism was delivered on to the drug containing agar plates using automated multipoint inoculator (Mast, UK). The plates were incubated in Biochemical oxygen demand (BOD) incubator at 37° C. for 18 hours and then examined for growth.
(§2) The strains selected for study included E. coli NCTC 13353 producing CTX-M15 and OXA-1 beta-lactamase enzymes; K. pneumoniae H521 producing KPC, SHV, TEM beta-lactamase enzymes; and K. pneumoniae S48 producing NDM, SHV, TEM beta-lactamase enzymes. The activities are expressed as Minimum Inhibitory Concentrations (MICs) (mcg/ml).
(§3) The activities are expressed as Minimum Inhibitory Concentrations (MICs) (mcg/ml).

[2] = system: E. coli NCTC 13353 (CTX-M15, OXA-1); assay: as above; format: cell-based; conditions: Escherichia coli
Protocol: as §1, §2, §3

[3] = system: K. pneumoniae S48 (NDM, SHV, TEM); assay: as above; format: cell-based; conditions: Klebsiella pneumoniae
Protocol: as §1, §2

[4] = target: T1, Class A beta-lactamase SHV 18 (K. pneumoniae ATCC 700603) (Klebsiella pneumoniae, UniProt P0AD64, E235K/G234A/I4F/R39S); assay: Beta-lactamase enzyme inhibition (Nitrocefin, crude enzyme); format: biochemical; conditions: Beta-lactamase enzyme inhibition IC50, Class A, K. pneumoniae ATCC 700603 (SHV 18)
T1 sequence (P0AD64 1-286 I4F/R39S/G234A/E235K): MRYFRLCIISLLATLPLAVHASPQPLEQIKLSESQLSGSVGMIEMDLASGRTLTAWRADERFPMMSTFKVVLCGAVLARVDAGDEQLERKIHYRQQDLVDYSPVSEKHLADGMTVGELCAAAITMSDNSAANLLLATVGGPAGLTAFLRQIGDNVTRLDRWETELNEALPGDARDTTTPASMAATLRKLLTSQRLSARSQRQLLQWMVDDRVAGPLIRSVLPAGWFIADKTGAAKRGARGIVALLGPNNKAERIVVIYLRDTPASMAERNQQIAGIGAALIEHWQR
Protocol: (§4) Absorbance was measured at 485 nm by UV-spectrophotometer. The IC50 was calculated by plotting absorbance against concentration through Sigmoidal dose response curve using Graph Pad software.
(§5) The enzyme inhibition was expressed as IC50.

[5] = target: T2, Class D beta-lactamase OXA 23 (A. baumannii NCTC 13301) (Acinetobacter baumannii, UniProt Q9L4P2); assay: as above; format: biochemical; conditions: A. baumannii NCTC 13301 (OXA 23)
T2 construct: preincubated mixture of crude enzyme and the compounds; endogenous in cells; host or cells: A. baumannii NCTC 13301
T2 sequence (Q9L4P2 18-273): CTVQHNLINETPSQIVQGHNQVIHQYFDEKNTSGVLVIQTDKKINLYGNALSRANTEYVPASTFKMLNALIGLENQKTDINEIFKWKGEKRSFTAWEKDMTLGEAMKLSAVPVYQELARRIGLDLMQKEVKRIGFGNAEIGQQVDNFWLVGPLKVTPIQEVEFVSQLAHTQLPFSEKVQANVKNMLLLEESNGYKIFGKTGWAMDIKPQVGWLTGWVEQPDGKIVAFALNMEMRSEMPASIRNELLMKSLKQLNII
Protocol: as §4, §5

[6] = system: Class C beta-lactamase CMY/DHA (E. coli M50); assay: as above; format: biochemical
Protocol: as §4, §5

[7] = target: Class D beta-lactamase OXA 26 (A. baumannii NCTC 13303) (Acinetobacter baumannii, UniProt Q9F0V2); assay: as above; format: biochemical; conditions: read-out: Beta-lactamase enzyme inhibition IC50, A. baumannii NCTC 13303 (OXA 26)
Class D beta-lactamase OXA 26 (A. baumannii NCTC 13303), sequence (Q9F0V2 entry or part of it): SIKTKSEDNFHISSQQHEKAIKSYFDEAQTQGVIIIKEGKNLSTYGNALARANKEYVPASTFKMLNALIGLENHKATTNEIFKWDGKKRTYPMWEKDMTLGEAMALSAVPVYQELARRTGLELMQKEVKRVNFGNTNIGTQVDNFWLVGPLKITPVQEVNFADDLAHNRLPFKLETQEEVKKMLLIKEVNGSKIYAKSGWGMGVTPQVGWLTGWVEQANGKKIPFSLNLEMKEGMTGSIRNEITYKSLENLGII
Protocol: as §4

E. coli M50 = assay: Zone of inhibition, agar well, with and without ceftazidime; format: cell-based; conditions: for Diameter of Zone of Inhibition, Compound + Ceftazidime (10 μg/ml): E. coli M50; for zone of inhibition at 0.25 µg/disc / zone of inhibition at 0.5 µg/disc / zone of inhibition at 1 µg/disc: Escherichia coli, M50, read-out: Diameter of Zone of Inhibition, Compound
Protocol: (§6) In a typical experiment, two sets of plates containing growth media (Molten Mueller Hilton Agar) and bacterial strains were prepared. One set of plates was taken as control (without ceftazidime) and other set contained ceftazidime. The media was allowed to solidify and wells were punched later, into which varying concentrations of compounds according to the invention were poured. A two-fold serial dilution range of each of the compounds according to invention was prepared and 50 μl of each of the dilution was added into the punched well. The plates were then incubated at 37° C. for 18 hours in BOD incubator and diameters of zone of inhibition were measured after the completion of the incubation.
(§7) The Table 6 provides the antibacterial activity of the combination comprising compounds according to invention and ceftazidime. The compounds according to invention were tested at 0.12, 0.25, 0.5 and 1 μg/well.

E. coli NCTC 13353 = assay: as above; format: cell-based; conditions: for Diameter of Zone of Inhibition, Compound + Ceftazidime (10 μg/ml): E. coli NCTC 13353; for zone of inhibition at 0.25 µg/disc / zone of inhibition at 0.5 µg/disc / zone of inhibition at 1 µg/disc: Escherichia coli, NCTC13353, read-out: Diameter of Zone of Inhibition, Compound
Protocol: as §6, §7

[8] = K. pneumoniae H521 (KPC, SHV, TEM), read-out: MIC
[9] = NCTC13353, E. coli NCTC 13353 (CTX-M15, OXA-1), read-out: MIC
[10] = Class D, read-out: Beta-lactamase enzyme inhibition IC50
[11] = Beta-lactamase enzyme inhibition IC50, Class D
[12] = compound 0.25 μg/well + Ceftazidime 10 μg/ml
[13] = compound 0.5 μg/well + Ceftazidime 10 μg/ml
[14] = compound 1 μg/well + Ceftazidime 10 μg/ml
[15] = compound […] + Ceftazidime 10 μg/ml

SMILES: O=C(CC1CNCCN1)NNC(=O)[C@@H]1CC[C@@H]2CN1C(=O)N2OS(=O)(=O)O (mixture of isomers) [Example 7, (2S,5R)-sulfuric acid mono-{2-[N′-(2-(RS)-piperazin-2-yl-acetyl)-hydrazinocarbonyl]-7-oxo-1,6-diaza-bicyclo[3.2.1]oct-6-yl}ester]
- MIC [1, 8]: 4 µg/mL
- MIC [2, 9]: 2 µg/mL
- MIC [3]: 2 µg/mL
- IC50 [4]: 67 nM
- IC50 [5, 10]: 2840 nM
- IC50 [6]: 70 nM

SMILES: CC(C)(O/N=C(\C(=O)N[C@@H]1C(=O)N2C(C(=O)[O-])=C(C[n+]3ccccc3)CS[C@H]12)c1csc(N)n1)C(=O)O [Ceftazidime, ceftazidime, reference compound]
- MIC [1, 8]: > 32 µg/mL
- MIC [2, 9]: 32 µg/mL (≈ 58.5 µM)
- MIC ([3]; K. pneomoniae S48 (NDM, SHV, TEM), read-out: MIC): > 32 µg/mL

SMILES: O=C(O)[C@H]1/C(=C/CO)O[C@@H]2CC(=O)N21 [Clavulanic acid, clavulanic acid, reference compound]
- IC50 [7]: > 10000 nM
- IC50 [5, 11]: > 10000 nM

SMILES: O=C(CC1CNC1)NNC(=O)[C@@H]1CC[C@@H]2CN1C(=O)N2OS(=O)(=O)O [Example 2, (2S,5R)-sulfuric acid mono-{2-[N′-(2-azetidin-3-yl-acetyl)-hydrazinocarbonyl]-7-oxo-1,6-diaza-bicyclo[3.2.1]oct-6-yl}ester]
- MIC [1]: 4 µg/mL (≈ 10.6 µM)
- MIC ([2]; NCTC13353): 1 µg/mL (≈ 2.65 µM)
- MIC [3]: 2 µg/mL (≈ 5.3 µM)
- Diameter of Zone of Inhibition, Compound + Ceftazidime (10 μg/ml) (E. coli M50; [12]): 19 mm
- Diameter of Zone of Inhibition, Compound + Ceftazidime (10 μg/ml) (E. coli M50; [13]): 22 mm
- Diameter of Zone of Inhibition, Compound + Ceftazidime (10 μg/ml) (E. coli M50; [14]): 23.5 mm
- Diameter of Zone of Inhibition, Compound + Ceftazidime (10 μg/ml) (E. coli M50; [15]): 15 mm
- zone of inhibition at 0.25 µg/disc (E. coli M50): 9 mm
- zone of inhibition at 0.5 µg/disc (E. coli M50): 12 mm
- zone of inhibition at 1 µg/disc (E. coli M50): 15 mm
- Diameter of Zone of Inhibition, Compound + Ceftazidime (10 μg/ml) (E. coli NCTC 13353; [12]): 24 mm
- Diameter of Zone of Inhibition, Compound + Ceftazidime (10 μg/ml) (E. coli NCTC 13353; [13]): 26 mm
- Diameter of Zone of Inhibition, Compound + Ceftazidime (10 μg/ml) (E. coli NCTC 13353; [14]): 30 mm
- Diameter of Zone of Inhibition, Compound + Ceftazidime (10 μg/ml) (E. coli NCTC 13353; [15]): 21 mm
- zone of inhibition at 0.25 µg/disc (E. coli NCTC 13353): 10 mm
- zone of inhibition at 0.5 µg/disc (E. coli NCTC 13353): 13 mm
- zone of inhibition at 1 µg/disc (E. coli NCTC 13353): 15 mm
- IC50 [4]: 97 nM
- IC50 [5, 11]: 6190 nM
- IC50 [6]: 103 nM

SMILES: O=C(C[C@@H]1CCCCN1)NNC(=O)[C@@H]1CC[C@@H]2CN1C(=O)N2OS(=O)(=O)O [Example 3, (2S,5R)-sulfuric acid mono-{2-[N′-(2-(S)-piperidin-2-yl-acetyl)-hydrazinocarbonyl]-7-oxo-1,6-diaza-bicyclo[3.2.1]oct-6-yl}ester]
- MIC [1]: 0.5 µg/mL (≈ 1.23 µM)
- MIC ([2]; NCTC13353): 0.25 µg/mL (≈ 0.617 µM)
- MIC [3]: 0.5 µg/mL (≈ 1.23 µM)
- Diameter of Zone of Inhibition, Compound + Ceftazidime (10 μg/ml) (E. coli M50; [12]): 17.5 mm
- Diameter of Zone of Inhibition, Compound + Ceftazidime (10 μg/ml) (E. coli M50; [13]): 20 mm
- Diameter of Zone of Inhibition, Compound + Ceftazidime (10 μg/ml) (E. coli M50; [14]): 22.5 mm
- Diameter of Zone of Inhibition, Compound + Ceftazidime (10 μg/ml) (E. coli M50; [15]): 14.5 mm
- zone of inhibition at 0.25 µg/disc (E. coli M50): 13 mm
- zone of inhibition at 0.5 µg/disc (E. coli M50): 16 mm
- zone of inhibition at 1 µg/disc (E. coli M50): 17 mm
- Diameter of Zone of Inhibition, Compound + Ceftazidime (10 μg/ml) (E. coli NCTC 13353; [12]): 22 mm
- Diameter of Zone of Inhibition, Compound + Ceftazidime (10 μg/ml) (E. coli NCTC 13353; [13]): 27 mm
- Diameter of Zone of Inhibition, Compound + Ceftazidime (10 μg/ml) (E. coli NCTC 13353; [14]): 30 mm
- Diameter of Zone of Inhibition, Compound + Ceftazidime (10 μg/ml) (E. coli NCTC 13353; [15]): 20 mm
- zone of inhibition at 0.25 µg/disc (E. coli NCTC 13353): 14 mm
- zone of inhibition at 0.5 µg/disc (E. coli NCTC 13353): 15 mm
- zone of inhibition at 1 µg/disc (E. coli NCTC 13353): 17 mm
- IC50 [4]: 74 nM
- IC50 [5, 10]: 2110 nM
- IC50 [6]: 52 nM

SMILES: O=C(C[C@H]1CCCCN1)NNC(=O)[C@@H]1CC[C@@H]2CN1C(=O)N2OS(=O)(=O)O [Example 4, (2S,5R)-sulfuric acid mono-{2-[N′-(2-(R)-piperidin-2-yl-acetyl)-hydrazinocarbonyl]-7-oxo-1,6-diaza-bicyclo[3.2.1]oct-6-yl}ester]
- MIC [1]: 4 µg/mL (≈ 9.87 µM)
- MIC ([2]; NCTC13353): 2 µg/mL (≈ 4.93 µM)
- MIC [3]: 2 µg/mL (≈ 4.93 µM)
- IC50 [4]: 170 nM
- IC50 [5, 10]: 2930 nM
- IC50 [6]: 56 nM

SMILES: O=C(C[C@@H]1CCCNC1)NNC(=O)[C@@H]1CC[C@@H]2CN1C(=O)N2OS(=O)(=O)O [Example 5, (2S,5R)-sulfuric acid mono-{2-[N′-(2-(S)-piperidin-3-yl-acetyl)-hydrazinocarbonyl]-7-oxo-1,6-diaza-bicyclo[3.2.1]oct-6-yl}ester]
- MIC ([1]; 18 h): 4 µg/mL (≈ 9.87 µM)
- MIC ([2]; NCTC13353, 18 h): 0.5 µg/mL (≈ 1.23 µM)
- MIC ([3]; 18 h): 1 µg/mL (≈ 2.47 µM)
- IC50 [4]: 160 nM
- IC50 [5, 10]: 1730 nM

SMILES: O=C(CC1CCNCC1)NNC(=O)[C@@H]1CC[C@@H]2CN1C(=O)N2OS(=O)(=O)O [Example 6, (2S,5R)-sulfuric acid mono-{2-[N′-(2-piperidin-4-yl-acetyl)-hydrazinocarbonyl]-7-oxo-1,6-diaza-bicyclo[3.2.1]oct-6-yl}ester]
- MIC [1]: 2 µg/mL (≈ 4.93 µM)
- MIC ([2]; NCTC13353): 0.5 µg/mL (≈ 1.23 µM)
- MIC [3]: 1 µg/mL (≈ 2.47 µM)
- IC50 [4]: 60 nM
- IC50 [5, 10]: 1620 nM
- IC50 [6]: 37 nM

- MIC [2, 9]: 0.25 µg/mL (≈ 0.835 µM)
SMILES: C[C@@H](O)[C@H]1C(=O)N2C(C(=O)O)=C(SCCN=CN)C[C@H]12 [Imipenem, imipenem, reference compound]
